According to article PMC10725991, “Kaempferol is a novel antiviral agent against channel catfish virus infection through blocking viral attachment and penetration in vitro” (Frontiers in Veterinary Science, 2023):

Tests used:
CCV in CCO cells [1] = assay: Virus penetration assay; assay type: cell-based, Channel catfish virus (CCV, Ictalurid herpesvirus 1); settings: kaempferol 15 μg/mL, 24 h
Experimental: Confluent CCO cells in 24-well plates were prechilled at 4°C, and then infected with CCV at 4°C for 1 h. After triple washing with pre-cooled PBS, the cells were treated with kaempferol (15 μg/mL) or medium at 28°C for 4 h. The compound dilutions were aspirated and the cells were rinsed with citrate buffer (pH 3.0) in order to inactivate and remove not penetrated virus. After incubated at 28°C for 24 h, the cells were collected for subsequent experiments, including RT-qPCR and viral titer.
Measurement of viral titer was described previously ([5]). In brief, CCO cells were cultured in 96-well plates, and they were infected with 10-fold serially diluted samples that were collected previously. At 72 h post-infection, the cells were directly observed under an inverted microscope. […]
For RT-qPCR, the total RNA was isolated from CCV-infected cells using RnaExTM (Trizol)^a reagent (GENERAY, China), and reversed transcribed applying a HiScript III RT SuperMix with gDNA wiper (Vazyme, China) following the manufacturer’s instructions. Quantitative PCR was performed with a LightCycler 96 Real-Time PCR Detection System (Roche, USA) using ChamQ Universal SYBR qPCR Master Mix (Vazyme, China) with the following cycle conditions: 95°C for 30 s, followed by 40 cycles of 95°C for 10 s and 60°C for 30 s. […] Fold changes of the selected gene vs 18 s (internal reference) were calculated by the 2^−△△Ct method. […]

CCV in CCO cells [2] = assay: Virus titration assay (TCID50) after kaempferol treatment; assay type: cell-based, Channel catfish virus (CCV, Ictalurid herpesvirus 1); settings: increasing concentration 2.5-15 μg/mL, 24 and 36 h post CCV infection
Experimental: The CCO cells were infected with the CCV at 10^3 TCID50/ml at 28°C for 1 h. Then, the cell culture medium was replaced using isopycnic DMEM medium containing various concentrations kaempferol (2.5, 5, 7.5, 10, 12.5, and 15 μg/mL). The cells without exposure to kaempferol and CCV were set as the mock control. CCV-infected cells served as a negative control. 24 and 36 h post-infection, the cells were collected and subjected to the RT-qPCR and western blot analysis for the viral gene and protein expression. Meanwhile, the cells were treated as described above for the determination of virus titer. The supernatant and cell pellets were collected at 24 and 36 h post-infection and the TCID50 was used to evaluate the viral loads of intracellular and extracellular.
Measurement of viral titer was described previously ([5]). […]
Figure 3 The anti-CCV activity by different concentration of kaempferol in vitro. […] The relative expression levels of the CCV ORF 39 and ORF 59 genes were evaluated by RT-qPCR at 24 h (A) and 36 h (B) post-infection. […] The cells were collected at 24 h (E) and 36 h (F) after infection and CCV ORF 39 and ORF59 proteins and cellular GADPH were analyzed by western blot. (G) The intracellular and released CCV virions separated from cell lysates and supernatants at 24 h and 36 h post infection were analyzed by viral titer. […] The p value was determined by *p < 0.05, **p < 0.01.

SMILES: O=c1c(O)c(-c2ccc(O)cc2)oc2cc(O)cc(O)c12 [Kaempferol]
- down-regulation of viral internalization (CCV ORF 39/ORF 59, RT-qPCR) vs CCV control (CCV in CCO cells [1]; 4 h at 28°C): more than 50%
- production of intracellular virus (virus titer), penetration assay (CCV in CCO cells [1]): significantly reduced
- intracellular and progeny viral loads (viral titer) (CCV in CCO cells [2]): dramatically reduced
